Source: PMC3356383, “Efficacious Intermittent Dosing of a Novel JAK2 Inhibitor in Mouse Models of Polycythemia Vera” (PLoS ONE, 2012)
pIC50: −log10 of the molar value. Marks after values point to notes of the source that are not given here.

Experiments:
[1] = tested on: peripheral blood cell populations; experiment: Cell populations in peripheral blood of normal mice; format: in vivo, C57BL/6 mice; details: 54 mpk
Text: JAK2 and its family members JAK1 and JAK3 are known to signal downstream of cytokines that play essential roles in the development of lymphoid cell populations. To examine more thoroughly the effects of JAK2 inhibition on lymphoid cells, we analyzed wild-type (C57BL/6) mice treated with 54 mpk MRLB-11055 for 3 days, 6 days or up to 5 cycles of 3 days (“on”) followed by a 4 day holiday (“off”).
Supplementary file pone.0037207.s005.doc: Table S3 Effect of MRLB-11055 on Cell Populations in Peripheral Blood of Normal Mice. Cell counts measured by Advia. Cycles refer to 3 days of treatment followed by a 4 day holiday. *p<0.01 and **p<0.001 in Student T test when comparing vehicle with treatment. HCT, hematocrit; RBC, red blood cells; HGB, hemoglobin; WBC, white blood cells. (DOC) Click here for additional data file.

[2] = tested on: pSTAT5 in BaF3 (JAK2 WT) cells; experiment: Cell pSTAT5 AlphaScreen SureFire assay; format: cell-based; details: Mus musculus, 1 hour, EPO-stimulated
Experimental: (§1) Measurement of pSTAT5 in cells was performed essentially as described previously using an AlphaScreen™ SureFire™ (Perkin Elmer) assay. BaF3 (JAK2 WT), BaF3 (JAK2 V617F), and CTLL-2 cells were exposed to compound for 60 min prior to lysis and subsequent detection of pSTAT5 via AlphaScreen technology. Prior to compound treatment, BaF3 (JAK2 WT) and CTLL-2 cells were cytokine starved overnight, with EPO or IL-2 added 15 minutes prior to lysis, respectively.

[3] = tested on: pSTAT5 in CTLL-2 cells (JAK1 and JAK3 dependent); experiment: Cell pSTAT5 AlphaScreen SureFire assay; format: cell-based
Experimental: as §1

CTLL-2 cells = experiment: Cell proliferation, ViaLight assay; format: cell-based
Experimental: (§2) Cell proliferation was measured by ViaLight (Lonza Group Ltd) assay as follows. Cells (1000–2000) were seeded into 384-well plates and incubated 16 hours @ 37°C, 5% CO2. […] Cells were lysed and ATP detected as per the manufacturer protocol.

BaF3 (JAK2 V617F) cells = experiment: Cell proliferation, ViaLight assay; format: cell-based; details: Mus musculus, 48 hour
Experimental: as §2

H2122 cells = experiment: Cell proliferation, ViaLight assay; format: cell-based; details: Homo sapiens, NCI-H2122, 48 hour, epithelial lung cancer cell line
Experimental: as §2

BaF3 (JAK2 WT) cells = experiment: Cell proliferation, ViaLight assay; format: cell-based; details: Mus musculus, 48 hour, EPO-stimulated
Experimental: as §2

[4] = tested on: lung epithelial cancer cell lines, including H2122 cells; experiment: Cell proliferation of several lung epithelial cancer cell lines; format: cell-based; details: on average
Experimental: as §2

JAK3 (JH1) = molecular target: T1, JAK3 (JH1) (Homo sapiens, UniProt P52333); experiment: JAK3 enzyme assay, HTRF detection; format: biochemical
T1 construct: JAK3 (JH1)
T1 sequence (P52333 822-1111 limits assumed, species assumed): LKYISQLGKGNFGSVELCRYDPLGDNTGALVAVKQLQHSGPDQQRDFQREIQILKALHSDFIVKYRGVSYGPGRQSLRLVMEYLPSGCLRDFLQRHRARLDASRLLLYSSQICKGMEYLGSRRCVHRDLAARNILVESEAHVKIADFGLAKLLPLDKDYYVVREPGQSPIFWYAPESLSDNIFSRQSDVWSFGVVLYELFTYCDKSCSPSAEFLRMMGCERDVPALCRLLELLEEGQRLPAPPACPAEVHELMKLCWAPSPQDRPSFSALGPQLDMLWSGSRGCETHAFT
Experimental: JAK1, JAK2, JAK3, and TYK2 kinase activity assays were performed as described previously using HTRF detection technology and the peptide substrate amino hexanoyl biotin-EQEDEPEGDYFEWLE-NH2. Each reaction was incubated between 60 and 80 min at room temperature. Final conditions were as follows: JAK1, 400 pM enzyme, Hepes pH 7.5, 10 mM MgCl2, 0.01% Brij-35, 1 mM EGTA, 0.1 mg/ml BSA), 2 mM DTT, 2 µM peptide substrate, 25 µM MgATP, 5% DMSO and the desired concentration of subject compound; JAK2, 25 pM enzyme (JH1, JH1–JH2^wt, JH1–JH2^V617F domains), 2 µM peptide substrate, 15 µM MgATP, 5 mM MgCl2, 100 mM NaCl, 2 mM DTT, 0.1 mg/ml BSA, 50 mM Tris (pH 7.4), 5% DMSO and the desired concentration of subject compound; JAK3, 250 pM enzyme, 50 mM Hepes pH 7.5, 10 mM MgCl2, 0.01% Brij-35, 1 mM EGTA, 0.1 mg/ml BSA), 2 mM DTT, 2.0 µM peptide substrate, 25 µM MgATP, 5% DMSO, and the desired concentration of subject compound; TYK2, 125 pM enzyme, 50 mM Hepes pH 7.5, 10 mM MgCl2, 0.01% Brij-35, 1 mM EGTA, 0.1 mg/ml BSA, 2 mM DTT, 2.0 µM peptide substrate, 15 µM MgATP, 5% DMSO and the desired concentration of subject compound.

[5] = 2 cycles (3 days treatment, 4 day holiday)
[6] = 5 cycles (3 days treatment, 4 day holiday)

`NC(=O)c1cnc(N[C@H](C2CC2)C(F)(F)F)c2c1[nH]c1cc(-c3cnc(N)nc3)ccc12` [MRLB-11055] was tested, and the Baso-phils [1, 5] was 0.03 ± 0.01 * x 10^3/µl, the Eosino-phils [1, 5] was 0.14 ± 0.06 x 10^3/µl and the HCT [1, 5] was 51.6 ± 1.5* %. The HGB [1, 5] was 13.4 ± 0.4** g/dL, the Lympho-cytes [1, 5] was 6.2 ± 1.6 x 10^3/µl and the Mono-cytes [1, 5] was 0.04 ± 0.01 x 10^3/µl. The Neutro-phils [1, 5] was 0.78 ± 0.18 x 10^3/µl, the Platelets [1, 5] was 2244 ± 85** x 10^3/µl and the “Platelets MPV” value [1, 5] was 6.9 ± 0.2** fL. The RBC [1, 5] was 9.65 ± 0.27* x 10^6/µl, the Retic [1, 5] was 803 ± 18** x 10^9/L and the WBC [1, 5] was 7.4 ± 1.7 x 10^3/µl. For the same compound, the Baso-phils [1, 6] was 0.04 ± 0.01 x 10^3/µl, the Eosino-phils [1, 6] was 0.06 ± 0.03 * x 10^3/µl and the HCT [1, 6] was 50.3 ± 0.6** %. For the same compound, the HGB [1, 6] was 13.0 ± 0.1** g/dL, the Lympho-cytes [1, 6] was 4.7 ± 1.5** x 10^3/µl and the Mono-cytes [1, 6] was 0.05 ± 0.01 x 10^3/µl. The Neutro-phils [1, 6] was 0.86 ± 0.34 x 10^3/µl, the Platelets [1, 6] was 2376 ± 171 ** x 10^3/µl and the “Platelets MPV” value [1, 6] was 6.8 ± 0.1** fL. The RBC [1, 6] was 9.41 ± 0.13** x 10^6/µl, the Retic [1, 6] was 911 ± 64** x 10^9/L and the WBC [1, 6] was 5.9 ± 1.9* x 10^3/µl. The Baso-phils ([1]; 3 days) was 0.03 ± 0.03 x 10^3/µl, the Eosino-phils ([1]; 3 days) was 0.26 ± 0.09 x 10^3/µl and the HCT ([1]; 3 days) was 50.4 ± 0.8** %. The HGB ([1]; 3 days) was 13.7 ± 0.2** g/dL, the Lympho-cytes ([1]; 3 days) was 4.2 ± 0.9** x 10^3/µl and the Mono-cytes ([1]; 3 days) was 0.05 ± 0.02 x 10^3/µl. The Neutro-phils ([1]; 3 days) was 0.61 ± 0.07 x 10^3/µl, the Platelets ([1]; 3 days) was 1611 ± 85** x 10^3/µl and the “Platelets MPV” value ([1]; 3 days) was 6.6 ± 0.4 fL. The RBC ([1]; 3 days) was 9.29 ± 0.04** x 10^6/µl, the Retic ([1]; 3 days) was 43 ± 6** x 10^9/L and the WBC ([1]; 3 days) was 5.3 ± 1.0** x 10^3/µl. For the same compound, the Baso-phils ([1]; 6 days) was 0.02 ± 0.01** x 10^3/µl, the Eosino-phils ([1]; 6 days) was 0.19 ± 0.06 x 10^3/µl and the HCT ([1]; 6 days) was 48.7 ± 2.5** %. The HGB ([1]; 6 days) was 12.9 ± 0.5** g/dL, the Lympho-cytes ([1]; 6 days) was 3.5 ± 0.4** x 10^3/µl and the Mono-cytes ([1]; 6 days) was 0.05 ± 0.02 x 10^3/µl. The Neutro-phils ([1]; 6 days) was 0.60 ± 0.16 x 10^3/µl, the Platelets ([1]; 6 days) was 2534 ± 88** x 10^3/µl and the “Platelets MPV” value ([1]; 6 days) was 6.1 ± 0.2** fL. For the same compound, the RBC ([1]; 6 days) was 8.80 ± 0.39** x 10^6/µl, the Retic ([1]; 6 days) was 162 ± 24** x 10^9/L and the WBC ([1]; 6 days) was 4.6 ± 0.6** x 10^3/µl. For the same compound, the pIC50 [2] was 7.64, the “Times less potent on IL-2 stimulated CTLL-2 pSTAT5 than on JAK2V617F-mediated pSTAT5 in BaF3 cells” value [3] was 6 times and the pIC50 ([3]; Mus musculus, CTLL-2, 1 hour, IL2-stimulated, JAK1 and JAK3 dependent) was 7.18. For the same compound, the “Fold more potent against IL-2-dependent CTLL cells than JAK2V617F BaF3 cells in proliferation assays” value (CTLL-2 cells) was 2 fold, the pIC50 (CTLL-2 cells; Mus musculus, CTLL-2, 48 hour, Vialight) was 7.89 and the pIC50 (BaF3 (JAK2 V617F) cells) was 7.54. For the same compound, the pIC50 (H2122 cells) was 5.72, the pIC50 (BaF3 (JAK2 WT) cells) was 7.85 and the “Proliferation IC50 of lung epithelial cancer cell lines, fold higher than for JAK2-dependent cell lines” value [4] was 50–70 fold. The pIC50 (JAK3 (JH1); HTRF, mean, n = 3, read-out: IC50, cell-free JAK3 (JH1)) was 6.52 and the “Selectivity for JAK2 over JAK3” value (JAK3 (JH1); cell-free assays) was > 3000 fold.
